According to ChEMBL document CHEMBL1201862, “PubChem BioAssay data set” (2004):
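Following 48 hours of exposure in 96-well plates, responses at five concentrations were used to interpolate endpoints linearly. Here, GI50 denotes the concentration required for 50% inhibition of growth.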 The source made the active and inactive calls. Rule as the data show it: active = GI50 up to about 1.1 µM and inactive = higher.

Tests used:
Assay in all cases: NCI tumour cell line growth inhibition, 48 h
ACHN = system: ACHN
BT-549 = system: BT-549
CAKI-1 = system: CAKI-1
COLO 205 = system: COLO 205
DU-145 = system: DU-145
EKVX = system: EKVX
HCT-116 = system: HCT-116
Hs-578T = system: Hs-578T
IGROV-1 = system: IGROV-1
M14 = system: M14
NCI-H226 = system: NCI-H226
NCI/ADR-RES = system: NCI/ADR-RES
SK-OV-3 = system: SK-OV-3
SN12C = system: SN12C
SNB-75 = system: SNB-75
SR = system: SR
SW-620 = system: SW-620
T47D = system: T47D
U-251 = system: U-251

Measured: GI50

CN(C)Cc1cc(C(F)(F)F)ccc1C(O)(c1ccccc1)c1ccccc1
inactive: ACHN 16.3 µM | BT-549 > 10 µM | CAKI-1 12.8 µM | COLO 205 8.05 µM | DU-145 26.7 µM | EKVX 15.4 µM | HCT-116 13 µM | Hs-578T 26.9 µM | IGROV-1 15.9 µM | M14 12.4 µM | NCI-H226 15.1 µM | NCI/ADR-RES 15.2 µM | SK-OV-3 17.4 µM | SN12C 15.4 µM | SNB-75 8.55 µM | SR 12.6 µM | SW-620 17.3 µM | T47D 18.2 µM | U-251 11.8 µM

CN(Cc1cnc2nc(N)nc(N)c2n1)c1ccc(C(=O)NCCS(=O)(=O)O)cc1
inactive: ACHN > 100 µM | BT-549 > 100 µM | CAKI-1 > 100 µM | COLO 205 > 100 µM | DU-145 > 100 µM | EKVX > 100 µM | HCT-116 91.6 µM | Hs-578T > 100 µM | IGROV-1 > 100 µM | M14 > 100 µM | NCI-H226 > 100 µM | NCI/ADR-RES > 100 µM | SK-OV-3 > 100 µM | SN12C > 100 µM | SNB-75 > 100 µM | SR 67.6 µM | SW-620 > 100 µM | T47D > 100 µM | U-251 > 100 µM

C=CCN1C(=O)/C(=C/c2ccccc2)NC1=S
inactive: ACHN > 100 µM | BT-549 > 100 µM | CAKI-1 > 100 µM | COLO 205 > 100 µM | DU-145 > 100 µM | EKVX 91 µM | HCT-116 > 100 µM | Hs-578T > 100 µM | IGROV-1 > 100 µM | M14 > 100 µM | NCI-H226 15.6 µM | NCI/ADR-RES > 100 µM | SK-OV-3 > 100 µM | SN12C > 100 µM | SNB-75 > 100 µM | SR > 100 µM | SW-620 > 100 µM | T47D > 100 µM | U-251 > 100 µM

C[N+](C)(CCNc1ccc(NCC[N+](C)(C)Cc2ccc([N+](=O)[O-])cc2)c2c1C(=O)c1ccccc1C2=O)Cc1ccc([N+](=O)[O-])cc1
inactive: ACHN > 100 µM | BT-549 > 100 µM | CAKI-1 > 100 µM | COLO 205 > 100 µM | DU-145 > 100 µM | EKVX > 100 µM | HCT-116 > 100 µM | Hs-578T > 100 µM | IGROV-1 > 100 µM | M14 > 100 µM | NCI-H226 > 100 µM | NCI/ADR-RES > 100 µM | SK-OV-3 > 100 µM | SN12C > 100 µM | SNB-75 > 100 µM | SR > 100 µM | SW-620 > 100 µM | T47D > 100 µM | U-251 > 100 µM

CC(=O)N(C(C)=O)n1c(Cc2ccc(Cl)cc2)nn(C(C)=O)c1=O
inactive: ACHN > 100 µM | BT-549 > 100 µM | COLO 205 > 100 µM | DU-145 > 100 µM | EKVX > 100 µM | Hs-578T > 100 µM | IGROV-1 > 100 µM | M14 > 100 µM | NCI-H226 > 100 µM | NCI/ADR-RES > 100 µM | SK-OV-3 > 100 µM | SN12C > 100 µM | SNB-75 > 100 µM | SR > 100 µM | SW-620 > 100 µM | T47D > 100 µM | U-251 > 100 µM

Cn1c2ccccc2c2cc(N3CCCC3)c3c(c21)C(=O)N(c1ccccc1)C3=O
inactive: ACHN > 100 µM | BT-549 > 100 µM | COLO 205 > 100 µM | DU-145 > 100 µM | EKVX 86.7 µM | HCT-116 > 100 µM | Hs-578T 72.9 µM | IGROV-1 > 100 µM | M14 > 100 µM | NCI-H226 47 µM | NCI/ADR-RES > 100 µM | SK-OV-3 58.9 µM | SN12C > 100 µM | SNB-75 38.4 µM | SR > 100 µM | SW-620 > 100 µM | T47D 62.1 µM | U-251 > 100 µM

COC(=O)[C@@H](Cc1ccccc1)NNC(=O)OC(C)(C)C
inactive: ACHN > 100 µM | BT-549 > 100 µM | COLO 205 > 100 µM | DU-145 > 100 µM | EKVX > 100 µM | HCT-116 > 100 µM | Hs-578T > 100 µM | IGROV-1 > 100 µM | NCI/ADR-RES > 100 µM | SK-OV-3 > 100 µM | SN12C > 100 µM | SR > 100 µM | SW-620 > 100 µM | T47D > 100 µM | U-251 > 100 µM

Cc1ccc(S(=O)(=O)N/N=C2\CCCCCCCCCCC2CN(C)C)cc1 (stereo not given)
inactive: ACHN 20.1 µM | BT-549 17.7 µM | CAKI-1 26.7 µM | COLO 205 17.4 µM | DU-145 18.5 µM | EKVX 22.9 µM | HCT-116 14.7 µM | Hs-578T 15 µM | IGROV-1 16 µM | M14 17.1 µM | NCI-H226 15.7 µM | NCI/ADR-RES 14.9 µM | SK-OV-3 20 µM | SN12C 20.6 µM | SR 16.9 µM | SW-620 17.9 µM | T47D 13.4 µM | U-251 15.9 µM

COc1ccc(-c2cc(=O)c3c(O)c(OC)c(O)cc3o2)cc1O
inactive: ACHN 13.8 µM | BT-549 19.3 µM | CAKI-1 13.9 µM | COLO 205 20.6 µM | DU-145 7.64 µM | EKVX 9.25 µM | HCT-116 3.48 µM | Hs-578T 3.08 µM | IGROV-1 4.62 µM | M14 3.4 µM | NCI-H226 35 µM | NCI/ADR-RES 2.69 µM | SK-OV-3 6.28 µM | SN12C 6.68 µM | SNB-75 3.65 µM | SW-620 3.13 µM | T47D 5.94 µM | U-251 5.26 µM

S=C1CCSc2c(ccc3ccccc23)N1
inactive: ACHN > 100 µM | BT-549 67.1 µM | CAKI-1 > 100 µM | COLO 205 > 100 µM | DU-145 > 100 µM | EKVX 77.6 µM | HCT-116 > 100 µM | Hs-578T 19.1 µM | IGROV-1 > 100 µM | M14 > 100 µM | NCI-H226 > 100 µM | NCI/ADR-RES > 100 µM | SK-OV-3 83.9 µM | SN12C > 100 µM | SNB-75 74.3 µM | SR 35.6 µM | T47D 70.5 µM | U-251 > 100 µM

NNC(=O)CC(=O)Nc1ccccc1Cl
inactive: ACHN > 100 µM | BT-549 > 100 µM | CAKI-1 > 100 µM | COLO 205 > 100 µM | DU-145 > 100 µM | EKVX > 100 µM | HCT-116 > 100 µM | Hs-578T > 100 µM | IGROV-1 > 100 µM | NCI/ADR-RES > 100 µM | SK-OV-3 > 100 µM | SN12C > 100 µM | SNB-75 > 100 µM | SR > 100 µM | SW-620 > 100 µM | T47D > 100 µM | U-251 > 100 µM

COC(=O)C(CCCCN)NC(=O)C(CCCCN)NC(=O)C(CCCCN)NC(C)=O.Cc1ccc(C(=O)Nc2ccc(S(=O)(=O)O)c3cc(S(=O)(=O)O)cc(S(=O)(=O)O)c23)cc1NC(=O)c1cccc(NC(=O)Nc2cccc(C(=O)Nc3cc(C(=O)Nc4ccc(S(=O)(=O)O)c5cc(S(=O)(=O)O)cc(S(=O)(=O)O)c45)ccc3C)c2)c1
inactive: ACHN > 50 µM | BT-549 > 50 µM | CAKI-1 > 50 µM | COLO 205 > 50 µM | DU-145 > 50 µM | HCT-116 > 50 µM | Hs-578T > 50 µM | M14 > 50 µM | NCI-H226 17.7 µM | NCI/ADR-RES > 50 µM | SK-OV-3 > 50 µM | SN12C > 50 µM | SNB-75 10.7 µM | SR > 50 µM | SW-620 > 50 µM | T47D > 50 µM | U-251 > 50 µM

COc1cc(C2SCC(=O)N2NC(=O)c2ccc(NC(C)=O)cc2OC)ccc1O (stereo not given)
inactive: ACHN 63 µM | BT-549 > 100 µM | CAKI-1 > 100 µM | COLO 205 > 100 µM | DU-145 21 µM | EKVX 5.74 µM | HCT-116 > 100 µM | Hs-578T > 100 µM | IGROV-1 58.2 µM | M14 > 100 µM | NCI/ADR-RES 96.4 µM | SK-OV-3 6.27 µM | SN12C 36.5 µM | SNB-75 23.7 µM | SR > 100 µM | SW-620 > 100 µM | T47D 67.1 µM

CCOC(=O)CC[C@H](NC(=O)c1ccc(CNc2nc3cc(C(F)(F)F)ccc3nc2C(=O)OCC)cc1)C(=O)OCC
inactive: ACHN 33.8 µM | BT-549 18.1 µM | CAKI-1 14.3 µM | COLO 205 > 100 µM | DU-145 > 81.8 µM | EKVX 17.3 µM | HCT-116 > 56.1 µM | Hs-578T 7.16 µM | IGROV-1 21 µM | M14 > 43.7 µM | NCI/ADR-RES 26.5 µM | SK-OV-3 31.4 µM | SN12C > 89.9 µM | SNB-75 12.8 µM | SR > 100 µM | SW-620 > 61.2 µM | T47D 18.1 µM | U-251 5.87 µM

CCOC(=O)c1c(-c2ccc(OC)cc2)c(C#N)c(=S)n(C2OC(COC(C)=O)C(OC(C)=O)C(OC(C)=O)C2OC(C)=O)c1-c1ccccc1 (stereo not given)
inactive: ACHN > 100 µM | BT-549 > 100 µM | CAKI-1 > 100 µM | DU-145 > 100 µM | HCT-116 > 100 µM | Hs-578T 29.9 µM | IGROV-1 > 100 µM | M14 > 100 µM | NCI/ADR-RES > 100 µM | SK-OV-3 > 100 µM | SN12C > 100 µM | SNB-75 60 µM | SR > 100 µM | SW-620 > 100 µM | T47D > 100 µM | U-251 > 100 µM
